# Measurements reported in PubChem BioAssay (NCI).
#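 Method: 48-hour compound exposure of cells in 96-well plates, five concentrations, linear interpolation of endpoints. Definition used: TGI = concentration required for complete inhibition of growth.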
# Key:
# Experiment in all cases: NCI-60 cell line screen, 48 h
# [1] = test system: HL-60(TB) leukemia
# [2] = test system: OVCAR-5 ovarian
# [3] = test system: KM12 colon
# [4] = test system: K-562 leukemia
# [5] = test system: HCT-116 colon
# [6] = test system: SNB-19 CNS
# [7] = test system: NCI-H226 lung
# [8] = test system: MDA-N
# [9] = test system: COLO 205 colon
# [10] = test system: HT29 colon
# [11] = test system: NCI/ADR-RES ovarian
# [12] = test system: MDA-MB-435
# [13] = test system: CAKI-1 renal
# [14] = test system: SF-295 CNS
# [15] = test system: SK-MEL-5 melanoma
# [16] = test system: DU-145 prostate
# [17] = test system: SK-MEL-2 melanoma
# [18] = test system: PC-3 prostate
# [19] = test system: IGROV1 ovarian
# [20] = test system: LOX IMVI melanoma
# [21] = test system: BT-549 breast
# [22] = test system: CCRF-CEM leukemia
# [23] = test system: SF-539 CNS
# [24] = test system: NCI-H460 lung
# [25] = test system: UACC-257 melanoma
# [26] = test system: MOLT-4 leukemia
# [27] = test system: SW-620 colon
# [28] = test system: HS 578T breast
# [29] = test system: ACHN renal
# [30] = test system: SN12C renal
# [31] = test system: OVCAR-3 ovarian
# [32] = test system: MALME-3M melanoma
# [33] = test system: RPMI-8226 leukemia
# [34] = test system: A549 NSCLC
# [35] = test system: SK-MEL-28 melanoma
# [36] = test system: MDA-MB-231 breast
# [37] = test system: TK-10 renal
# [38] = test system: NCI-H522 lung
# [39] = test system: UO-31 renal
# [40] = test system: HCT-15 colon
# [41] = test system: NCI-H23 lung
# [42] = test system: A498 renal
# [43] = test system: UACC-62 melanoma
# [44] = test system: OVCAR-8 ovarian
# [45] = test system: SK-OV-3 ovarian
# [46] = test system: U251 CNS
# [47] = test system: RXF 393 renal
# [48] = test system: EKVX NSCLC
# [49] = test system: SF-268 CNS
# [50] = test system: 786-0 renal
# [51] = test system: SNB-75 CNS
# [52] = test system: M14 melanoma
# [53] = test system: T-47D breast
# [54] = test system: OVCAR-4 ovarian
# [55] = test system: HOP-62 NSCLC
# [56] = test system: HCC-2998 colon
# [57] = test system: MCF7 breast
# [58] = test system: SR leukemia
# [59] = test system: HOP-92 NSCLC
compound,measurement,setting,value
O=Cc1c(C(=O)O)[nH]c(=O)[nH]c1=O,TGI,[1],> 100 µM
same,TGI,[2],> 100 µM
same,TGI,[3],> 100 µM
same,TGI,[4],> 100 µM
same,TGI,[5],> 100 µM
same,TGI,[6],> 100 µM
same,TGI,[7],> 100 µM
same,TGI,[8],> 100 µM
same,TGI,[9],> 100 µM
same,TGI,[10],> 100 µM
same,TGI,[11],> 100 µM
same,TGI,[12],> 100 µM
same,TGI,[13],> 100 µM
same,TGI,[14],> 100 µM
same,TGI,[15],> 100 µM
same,TGI,[16],> 100 µM
same,TGI,[17],> 100 µM
same,TGI,[18],> 100 µM
same,TGI,[19],> 100 µM
same,TGI,[20],> 100 µM
same,TGI,[21],> 100 µM
same,TGI,[22],> 100 µM
same,TGI,[23],> 100 µM
same,TGI,[24],> 100 µM
same,TGI,[25],> 100 µM
same,TGI,[26],> 100 µM
same,TGI,[27],> 100 µM
same,TGI,[28],> 100 µM
same,TGI,[29],> 100 µM
same,TGI,[30],> 100 µM
same,TGI,[31],> 100 µM
same,TGI,[32],> 100 µM
same,TGI,[33],> 100 µM
same,TGI,[34],> 100 µM
same,TGI,[35],> 100 µM
same,TGI,[36],> 100 µM
same,TGI,[37],> 100 µM
same,TGI,[38],> 100 µM
same,TGI,[39],> 100 µM
same,TGI,[40],> 100 µM
same,TGI,[41],> 100 µM
same,TGI,[42],> 100 µM
same,TGI,[43],> 100 µM
same,TGI,[44],> 100 µM
same,TGI,[45],> 100 µM
same,TGI,[46],> 100 µM
same,TGI,[47],> 100 µM
same,TGI,[48],> 100 µM
same,TGI,[49],> 100 µM
same,TGI,[50],> 100 µM
same,TGI,[51],> 100 µM
same,TGI,[52],> 100 µM
Cc1nc(-c2cc3cc([N+](=O)[O-])ccc3oc2=O)cs1,TGI,[53],> 100 µM
same,TGI,[54],> 100 µM
same,TGI,[1],> 100 µM
same,TGI,[2],> 100 µM
same,TGI,[3],> 100 µM
same,TGI,[4],> 100 µM
same,TGI,[5],> 100 µM
same,TGI,[6],> 100 µM
same,TGI,[7],> 100 µM
same,TGI,[8],> 100 µM
same,TGI,[9],> 100 µM
same,TGI,[10],> 100 µM
same,TGI,[12],> 100 µM
same,TGI,[13],> 100 µM
same,TGI,[14],> 100 µM
same,TGI,[15],> 100 µM
same,TGI,[16],> 100 µM
same,TGI,[17],> 100 µM
same,TGI,[55],> 100 µM
same,TGI,[18],> 100 µM
same,TGI,[19],> 100 µM
same,TGI,[20],> 100 µM
same,TGI,[56],> 100 µM
same,TGI,[21],> 100 µM
same,TGI,[22],> 100 µM
same,TGI,[57],> 100 µM
same,TGI,[23],> 100 µM
same,TGI,[24],> 100 µM
same,TGI,[25],> 100 µM
same,TGI,[26],> 100 µM
same,TGI,[58],> 100 µM
same,TGI,[27],> 100 µM
same,TGI,[28],> 100 µM
same,TGI,[29],> 100 µM
same,TGI,[59],> 100 µM
same,TGI,[30],> 100 µM
same,TGI,[33],> 100 µM
same,TGI,[34],> 100 µM
same,TGI,[35],> 100 µM
same,TGI,[36],> 100 µM
same,TGI,[37],> 100 µM
same,TGI,[39],> 100 µM
same,TGI,[40],> 100 µM
same,TGI,[43],> 100 µM
same,TGI,[45],> 100 µM
same,TGI,[46],> 100 µM
same,TGI,[47],> 100 µM
same,TGI,[48],> 100 µM
same,TGI,[49],> 100 µM
same,TGI,[50],> 100 µM
same,TGI,[51],94.8 µM
same,TGI,[52],> 100 µM
